For orientation: IC50 means the point on the concentration scale where inhibition reaches its midpoint.

Structures are written as SMILES.

One assay concerns the target T1, PKA catalytic subunit (Bos taurus, UniProt P00517).
T1 construct: gene PRKACA; native catalytic subunit purified from bovine heart PKA (P5511) by column chromatography
The assay is described as follows: fluorescence polarisation competition with compound […]. The assay is classed as binding.

Assay [1] deals with T2, PKA (cAMP-dependent protein kinase), semi-pure tetramer (Bos taurus, UniProt P00517).
T2 construct: gene PRKACA; native, semi-pure from bovine heart; whole tetramer of two catalytic and two regulatory subunits; with cAMP-dependent protein kinase type II-alpha regulatory subunit
In words: fluorescence polarisation saturation binding, one-site fit. The settings on record: read-out: binding constant.

Take `CC1CNCCN1S(=O)(=O)c1cccc2cnccc12` (centres unmarked) [H‐7]: the IC50 at PKA catalytic subunit came to 3900 nM.

For `CO[C@@H]1[C@H](N(C)CC(=O)NCCNC(=O)CCC(=O)NCCOCCOCCNC(=S)Nc2ccc(-c3c4ccc(=O)cc-4oc4cc(O)ccc34)c(C(=O)O)c2)C[C@H]2O[C@]1(C)n1c3ccccc3c3c4c(c5c6ccccc6n2c5c31)C(=O)NC4` [compound 8, 2‐(6‐Hydroxy‐3‐oxo‐3H‐xanthen‐9‐yl)‐5‐(3‐(2‐((5R,7R,8R,9S)‐8‐methoxy‐9‐methyl‐16‐oxo‐6,7,8,9,15,16‐hexahydro‐5H,14H‐17‐oxa‐4b,9a,15‐triaza‐5,9‐methanodibenzo[b,h]cyclonona[jkl]‐cyclopenta[e]‐as‐indacen‐7‐yl)‐4,9,12‐trioxo‐16,19‐dioxa‐2,5,8,13‐tetraazahenicosan‐21‐yl)thioureido)benzoic acid], the Kd in assay [1] is 44 nM.

The values above are taken from article PMC4949516 (Chemmedchem, 2016).
